Results published in patent US4855430A, “Polycyclicamine with psychotropic activity” (American Home Products Corporation, priority 1987, dated 1989).
Where a name gives a salt, the structure may show the parent alone. Read-outs that look alike come from different tables or passages of the source.

Assays:
[1] = target: limbic D-2 dopamine receptor (Rattus norvegicus, UniProt P61169); assay: inhibition of limbic D-2 dopamine receptor binding (3H-spiroperidol), in vitro; conditions: read-out: % Inhibition of H3-Spiroperidol Binding at 1 μM
Sequence of limbic D-2 dopamine receptor (P61169 whole entry): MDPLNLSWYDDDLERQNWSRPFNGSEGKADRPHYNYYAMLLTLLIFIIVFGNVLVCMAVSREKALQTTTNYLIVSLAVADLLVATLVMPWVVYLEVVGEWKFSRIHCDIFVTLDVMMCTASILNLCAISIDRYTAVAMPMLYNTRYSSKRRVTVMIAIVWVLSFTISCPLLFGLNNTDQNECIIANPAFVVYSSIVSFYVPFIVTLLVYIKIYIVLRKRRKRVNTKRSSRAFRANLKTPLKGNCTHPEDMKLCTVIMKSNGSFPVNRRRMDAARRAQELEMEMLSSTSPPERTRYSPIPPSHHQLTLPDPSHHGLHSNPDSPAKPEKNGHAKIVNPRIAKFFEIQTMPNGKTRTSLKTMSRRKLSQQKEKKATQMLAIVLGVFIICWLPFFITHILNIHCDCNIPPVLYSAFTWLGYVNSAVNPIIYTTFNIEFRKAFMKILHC

[2] = target: T1, 5-HT1A serotonin receptor (Rattus norvegicus, UniProt P19327); assay: ex vivo inhibition of 5-HT1A serotonin receptor binding assay (3H-8-OH-DPAT, hippocampal tissue); conditions: read-out: % Inhibition of 8-OH DPAT Binding at 1 μM
T1 construct: Hippocampal tissue is dissected and homogenized on ice; from tissue; host or cells: rat hippocampus (membrane homogenate)
T1 sequence (P19327 1-422): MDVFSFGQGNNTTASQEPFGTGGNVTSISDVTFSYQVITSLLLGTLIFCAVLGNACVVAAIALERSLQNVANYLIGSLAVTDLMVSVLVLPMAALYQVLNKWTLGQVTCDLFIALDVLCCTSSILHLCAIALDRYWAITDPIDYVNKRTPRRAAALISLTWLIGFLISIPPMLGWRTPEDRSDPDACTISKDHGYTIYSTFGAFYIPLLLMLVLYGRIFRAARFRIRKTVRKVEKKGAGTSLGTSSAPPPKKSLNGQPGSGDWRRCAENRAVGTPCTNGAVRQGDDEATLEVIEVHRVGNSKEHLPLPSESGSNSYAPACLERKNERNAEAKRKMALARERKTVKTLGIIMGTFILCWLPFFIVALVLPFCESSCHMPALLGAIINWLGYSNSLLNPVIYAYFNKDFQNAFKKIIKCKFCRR
Protocol: The assay is carried out as follows:
Several groups of rats (4-6 rats/group) are injected with test compound or the appropriate vehicle. Thirty minutes later, unless otherwise noted, rats are decapitated and their brains removed. Various brain regions are dissected and rapidly frozen and maintained at -70° C. until used.
The homogenate is then centrifuged at 20,000 rpm (RC5-B; 40,000 g) and the supernatant discarded. The pellet is resuspended in 40 vols of the same buffer and incubated at 37° C. for 10 minutes to aid in the removal of endogenous serotonin. The homogenate is then centrifuged (as above) and the supernatant discarded. The pellet is then resuspended in 100 vols of buffer B (50 mM Tris HCl, pH=7.7 containing 0.1% ascorbate, 10 μM pargyline and 4 mM CaCl2) and sonicated. An aliquot is taken for protein determination by the Lowry method and the remainder stored frozen at -70° C. until used.
The homogenate (50 μl; 0.4-0.6 mg protein/sample) is incubated with 100 μl (1.5-1.8 nM) ^3 H-8-hydroxy-2-(di-n-propylamino)tetraline in a final volume of 2 ml of buffer for 10 minutes at 37° C.
Specific binding obtained in vehicle-treated rats is compared to that obtained in animals receiving a single or various doses of test compound and expressed as percent of control.

5-HT1A receptor = conditions: literature, in words; cited from earlier work
[3] = West German Patent Application No. 3,321,969A; cited from earlier work
[4] = 1 μM, 3H-8-OH-DPAT, rat hippocampal tissue

For `O=C(CCCN1CC2C3C=CC(CCC3)C2C1)c1ccc(F)cc1` (centres unmarked) [Example 3, 1-(4-Fluorophenyl)-4-(3,3a,4,5,6,7,8,8a-octahydro-4,8-ethenocyclohepta[c]pyrrol-2(1H)-yl)-1-butanone, hydrochloride, hydrate], the inhibition at 1 µM [1] was 100% and the inhibition at 1 µM [2] was 61%.

Molecule `C1=CC2C3CCC3C1C1CN(CCc3ccc4ccccc4n3)CC21` (centres unmarked) [Example 4, 2,3,3a,4,4a,5,6,6a,7,7a-Decahydro-2-[2-(2-quinolinyl)ethyl]-4,7-etheno-2H-cyclobut[f]isoindole, dihydrochloride, hydrate] has an inhibition at 1 µM [1] of 17% and an inhibition at 1 µM [2, 4] of 97%.

For `C1=CC2C3CCC3C1C1CN(CCc3ccccn3)CC21` (centres unmarked) [Example 6, 2,3,3a,4,4a,5,6,6a,7,7a-Decahydro-2-[2-(2-pyridinyl)ethyl]-4,7-etheno-1H-cyclobut[f]isoindole, dihydrochloride, 1/4 hydrate], the inhibition at 1 µM [1] was 3% and the inhibition at 1 µM [2, 4] was 89%.

In the case of `C1=CC2C1C1C=CC2C2CN(CCc3ccc4ccccc4n3)CC12` (centres unmarked) [Example 7, 2,3,3a,4,4a,6a,6,7,7a-Octahydro-2-[2-(2-quinolinyl)ethyl]4,7-etheno-1H-cyclobut[f]isoindole, dihydrochloride, 11/4 hydrate], the inhibition at 1 µM [2, 4] is reported as 46%.

Work on `Clc1cccc(N2CCN(CCCN3CC4CCC(CC4)C3)CC2)c1` [Example 8, 3-[3-[4-(3-Chlorophenyl)-1-piperazinyl]propyl]-3-azabicyclo[3.2.2]nonane, dihydrochloride] yielded an inhibition at 1 µM [1] of 11% and an inhibition at 1 µM [2] of 82%.

`Clc1cccc(N2CCN(CCCN3CC4C5C=CC(C6CCC56)C4C3)CC2)c1` (centres unmarked) [Example 9, 2-[3-[4-(3-Chlorophenyl)-1-piperazinyl]propyl]-2,3,3a,4,4a,5,6,7,7a-decahydro-4,7-etheno-1H-cyclobut[f]isoindole, trihydrochloride, dihydrate] gave an inhibition at 1 µM [1] of 40%.

For `O=C(CCCN1CC2C3C=CC(C4CC34)C2C1)c1ccc(F)cc1` (centres unmarked) [Example 10, 1-(4-Fluorophenyl)-4-(3,3a,4,4a,5,5a,6,6a-octahydro-4,6-ethenocycloprop[f]isoindole-2-(1H)-yl)-1-butanone, hydrochloride, sesquihydrate], the inhibition at 1 µM [1] was 93%.

With `c1ccc2nc(CCN3CC4CCC(CC4)C3)ccc2c1` [Example 12, 3-[2-(2-Quinolinyl)ethyl[-3-azabicyclo[3.2.2]nonane, dihydrochloride, dihydrate] the inhibition at 1 µM [2] was 30%.

For `COc1ccccc1N1CCN(CCCN2CC3CCC(CC3)C2)CC1` [Example 13, 3-[3-[4-(2-Methoxyphenyl)-1-piperazinyl]propyl]-3-azabicyclo[3.2.2]nonane, trihydrochloride, 3/4 hydrate], the inhibition at 1 µM [1] was 55%.

In the case of `O=C1c2ccccc2S(=O)(=O)N1CCCCN1CCN(c2ncccn2)CC1` [TVX Q 7821, 2-[4-[4-(2-pyrimidinyl)-1-piperazinyl]butyl]-1,2-benzisothiazol-3-(2H)one1,1-dioxide hydrochloride], the “binding at the 5-HT1A site” value (5-HT1A receptor) is listed as “demonstrate binding at the 5-HT1A site” and the antidepressant activity [3] is listed as “possess antidepressant activity”.

For `O=C1CC2(CCCC2)CC(=O)N1CCCCN1CCN(c2ncccn2)CC1` [buspirone, 8-[4-[4-(2-pyrimidinyl)-1-piperazinyl]butyl]-8-azaspiro[4.5]decane-7,9-dione], the “binding at the 5-HT1A site” value (5-HT1A receptor) is given as “demonstrate binding at the 5-HT1A site”.

For `CCCC(C)C1(CC)C(=O)NC(=O)NC1=O` (centres unmarked) [pentobarbital], the “binding at the 5-HT1A site” value (5-HT1A receptor) is listed as “do not act via the 5-HT1A receptor”.
